Among the data in US20250346585A1 (Alexion Pharmaceuticals, Inc., priority 2022, published 2025) are IC50 values, retold here.

Human complement C1s enzyme, sequence (P09871 438-688 limits assumed): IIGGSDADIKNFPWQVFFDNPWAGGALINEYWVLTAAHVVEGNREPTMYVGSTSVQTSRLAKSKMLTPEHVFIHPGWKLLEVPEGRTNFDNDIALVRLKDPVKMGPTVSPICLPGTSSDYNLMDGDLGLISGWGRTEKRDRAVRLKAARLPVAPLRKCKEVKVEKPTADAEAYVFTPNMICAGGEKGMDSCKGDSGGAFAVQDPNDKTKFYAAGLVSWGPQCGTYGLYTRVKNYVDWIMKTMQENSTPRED
Human complement C1s enzyme, sequence (P09871 16-437 partner limits assumed): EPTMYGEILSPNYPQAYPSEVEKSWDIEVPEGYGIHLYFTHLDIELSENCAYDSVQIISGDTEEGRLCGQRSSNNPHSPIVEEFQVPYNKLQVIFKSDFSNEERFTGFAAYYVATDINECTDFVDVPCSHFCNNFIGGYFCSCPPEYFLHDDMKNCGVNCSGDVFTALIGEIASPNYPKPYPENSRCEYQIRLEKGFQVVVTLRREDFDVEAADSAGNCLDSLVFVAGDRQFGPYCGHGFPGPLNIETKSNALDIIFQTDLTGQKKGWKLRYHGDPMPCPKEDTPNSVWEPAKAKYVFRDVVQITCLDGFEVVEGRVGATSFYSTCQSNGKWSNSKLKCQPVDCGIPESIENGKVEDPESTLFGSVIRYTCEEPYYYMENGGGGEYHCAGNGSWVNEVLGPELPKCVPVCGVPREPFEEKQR

The test addresses Human complement C1s enzyme (Homo sapiens (Human), UniProt P09871). Description: Human C1s enzyme assay. The note with it: Human C1s enzyme assay of Example 3; read-out: IC50 (Stars). In kind it is biochemical. In a few lines:
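IC50 derived by nonlinear regression of rate versus concentration, with rate taken from A405 kinetics (30 s intervals, 30 min) after adding 100 μM each Z-L-Lys-SBzl and DTNB. C1s from human serum, 1.16 nM, exposed to compound for 5 min at RT beforehand; buffer 50 mM Tris, 1 M NaCl, pH 7.5.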
Take `O=C(NCC(=O)N1CC2(C[C@H]1C(=O)NCc1cc(Br)cs1)OCCO2)c1ccc(Oc2ccc(F)cc2)cc1` [Compound 75, (S)—N-((4-bromothiophen-2-yl)methyl)-7-((4-(4-fluorophenoxy)benzoyl)glycyl)-1,4-dioxa-7-azaspiro[4.4]nonane-8-carboxamide]: the IC50 was greater than 1000 nM.
With `O=C(NCC(=O)N1CC2(C[C@H]1C(=O)NCc1cc(-c3cc(C(F)(F)F)[nH]n3)cs1)OCCO2)c1ccc(Oc2ccc(F)cc2)cc1` [Compound 76, (S)-7-((4-(4-fluorophenoxy)benzoyl)glycyl)-N-((4-(5-(trifluoromethyl)-1H-pyrazol-3-yl)thiophen-2-yl)methyl)-1,4-dioxa-7-azaspiro[4.4]nonane-8-carboxamide] the figure was greater than 1000 nM; with `N=C(N)c1csc(CNC(=O)[C@@H]2CC3(CN2C(=O)CNC(=O)c2ccc(-c4ccccc4)cc2)OCCO3)c1` [Compound 77, (S)-7-(([1,1′-biphenyl]-4-carbonyl)glycyl)-N-((4-carbamimidoylthiophen-2-yl)methyl)-1,4-dioxa-7-azaspiro[4.4]nonane-8-carboxamide], less than 100 nM; with `C[C@@H](NC(=O)[C@@H]1CC2(CN1C(=O)CNC(=O)c1ccc3cc4ccccc4cc3c1)OCCO2)c1cc(C(=N)N)cs1` [Compound 78, (S)-7-((anthracene-2-carbonyl)glycyl)-N—((R)-1-(4-carbamimidoylthiophen-2-yl)ethyl)-1,4-dioxa-7-azaspiro[4.4]nonane-8-carboxamide], less than 100 nM.
The value for `C[C@@H](NC(=O)[C@@H]1C[C@@H](c2ccccc2)CN1C(=O)CNC(=O)c1ccc2c(c1)-c1ccccc1C2(F)F)c1cc(C(=N)N)cs1` [Compound 81, (2S,4S)—N—((R)-1-(4-carbamimidoylthiophen-2-yl)ethyl)-1-((9,9-difluoro-9H-fluorene-3-carbonyl)glycyl)-4-phenylpyrrolidine-2-carboxamide] was less than 100 nM.
For `C[C@@H](NC(=O)[C@@H]1CC2(CN1C(=O)CNC(=O)c1ccc(C(F)(F)c3ccccc3)cc1)OCCO2)c1cc(C(=N)N)cs1` [Compound 82, (S)—N—((R)-1-(4-carbamimidoylthiophen-2-yl)ethyl)-7-((4-(difluoro(phenyl)methyl)benzoyl)glycyl)-1,4-dioxa-7-azaspiro[4.4]nonane-8-carboxamide], the IC50 was less than 100 nM.
The value for `N=C(N)c1csc(CNC(=O)[C@@H]2CC3(CN2C(=O)CNC(=O)c2ccc(-c4ccccc4)cc2F)OCCO3)c1` [Compound 83, (S)—N-((4-carbamimidoylthiophen-2-yl)methyl)-7-((3-fluoro-[1,1′-biphenyl]-4-carbonyl)glycyl)-1,4-dioxa-7-azaspiro[4.4]nonane-8-carboxamide] was less than 100 nM; that for `C[C@H](O)[C@H](O)[C@@H](O)[C@@H](O)CNCC(=O)NCCOC[C@@]12C[C@@H]1N(C(=O)CNC(=O)c1ccc(Oc3ccc(F)cc3)cc1)[C@H](C(=O)N[C@H](C)c1cc(C(=N)N)cs1)C2` [Compound 84, (1S,3S,5R)—N—((R)-1-(4-carbamimidoylthiophen-2-yl)ethyl)-2-((4-(4-fluorophenoxy)benzoyl)glycyl)-5-((2-(2-(((2S,3S,4S,5S)-2,3,4,5-tetrahydroxyhexyl)amino)acetamido)ethoxy)methyl)-2-azabicyclo[3.1.0]hexane-3-carboxamide] was less than 100 nM.
On to `C[C@@H](NC(=O)[C@@H]1CC2(CN1C(=O)CNC(=O)c1ccc(Oc3ccc(F)cc3)cc1)OCCO2)c1ccc(C(=N)N)s1` [Compound 85, (S)—N—((R)-1-(5-carbamimidoylthiophen-2-yl)ethyl)-7-((4-(4-fluorophenoxy)benzoyl)glycyl)-1,4-dioxa-7-azaspiro[4.4]nonane-8-carboxamide], for which the IC50 was less than 100 nM.
Regarding `C[C@@H](NC(=O)[C@@H]1C[C@@H](OC(F)F)CN1C(=O)CNC(=O)c1ccc(Oc2ccc(F)cc2)cc1)c1cc(-c2ncc[nH]2)cs1` [Compound 86, (2S,4R)—N—((R)-1-(4-(1H-imidazol-2-yl)thiophen-2-yl)ethyl)-4-(difluoromethoxy)-1-((4-(4-fluorophenoxy)benzoyl)glycyl)pyrrolidine-2-carboxamide], the IC50 was less than 100 nM.
With `C[C@@H](NC(=O)[C@@H]1CC2(CN1C(=O)CNC(=O)c1ccc3c(c1)-c1ccccc1C3(F)F)OCCO2)c1cc(-c2ncc[nH]2)cs1` [Compound 87, (S)—N—((R)-1-(4-(1H-imidazol-2-yl)thiophen-2-yl)ethyl)-7-((9,9-difluoro-9H-fluorene-3-carbonyl)glycyl)-1,4-dioxa-7-azaspiro[4.4]nonane-8-carboxamide], the IC50 was less than 100 nM.
With `N=C(N)c1csc(CNC(=O)[C@@H]2CC3(CN2C(=O)CNC(=O)c2ccc4c(c2)-c2ccccc2C4=O)OCCO3)c1` [Compound 88, (S)—N-((4-carbamimidoylthiophen-2-yl)methyl)-7-((9-oxo-9H-fluorene-3-carbonyl)glycyl)-1,4-dioxa-7-azaspiro[4.4]nonane-8-carboxamide] the figure was less than 100 nM; with `C[C@H](O)[C@H](O)[C@@H](O)[C@@H](O)CNCC(=O)NCCOC[C@@]12C[C@@H]1N(C(=O)CNC(=O)c1ccc3c(c1)-c1ccccc1C3(F)F)[C@H](C(=O)N[C@H](C)c1cc(C(=N)N)cs1)C2` [Compound 89, (1S,3S,5R)—N—((R)-1-(4-carbamimidoylthiophen-2-yl)ethyl)-2-((9,9-difluoro-9H-fluorene-3-carbonyl)glycyl)-5-((2-(2-(((2S,3S,4S,5S)-2,3,4,5-tetrahydroxyhexyl)amino)acetamido)ethoxy)methyl)-2-azabicyclo[3.1.0]hexane-3-carboxamide], less than 100 nM.
With `C[C@@H](NC(=O)[C@@H]1CC2(CN1C(=O)CNC(=O)c1ccc(-c3ccccc3)cc1)OCCO2)c1cc(C(=N)N)cs1` [Compound 90, (S)-7-(([1,1′-biphenyl]-4-carbonyl)glycyl)-N—((R)-1-(4-carbamimidoylthiophen-2-yl)ethyl)-1,4-dioxa-7-azaspiro[4.4]nonane-8-carboxamide] the figure was less than 100 nM.
The value for `C[C@@H](NC(=O)[C@@H]1CC2(CN1C(=O)CNC(=O)c1ccc3c(c1)-c1ccccc1C3(F)F)OCCO2)c1cc(-c2cncnc2)cs1` [Compound 91, (S)-7-((9,9-difluoro-9H-fluorene-3-carbonyl)glycyl)-N—((R)-1-(4-(pyrimidin-5-yl)thiophen-2-yl)ethyl)-1,4-dioxa-7-azaspiro[4.4]nonane-8-carboxamide] was greater than 1000 nM; that for `C[C@@H](NC(=O)[C@@H]1CC2(CN1C(=O)CNC(=O)c1ccc3c(c1)-c1ccccc1C3(F)F)OCCO2)c1cc(-c2nn[nH]n2)cs1` [Compound 92, (S)—N—((R)-1-(4-(2H-tetrazol-5-yl)thiophen-2-yl)ethyl)-7-((9,9-difluoro-9H-fluorene-3-carbonyl)glycyl)-1,4-dioxa-7-azaspiro[4.4]nonane-8-carboxamide] was greater than 1000 nM.
Turning to `C[C@@H](NC(=O)[C@@H]1C[C@H](C2CCCCC2)CN1C(=O)CNC(=O)c1ccc(Oc2ccc(F)cc2)cc1)c1cc(C(=N)N)cs1` [Compound 93, (2S,4R)—N—((R)-1-(4-carbamimidoylthiophen-2-yl)ethyl)-4-cyclohexyl-1-((4-(4-fluorophenoxy)benzoyl)glycyl)pyrrolidine-2-carboxamide], the IC50 is less than 100 nM.

For orientation: IC50 means the concentration needed to halve the response being measured.
